From the NIST ThermoML archive (doi:10.1016/j.jct.2007.10.010)

Experiments:
[1] = 101 kPa, Liquid
[2] = refractive index (Na D-line) (dimensionless); settings: 298.15 K; 101.33 kPa; Liquid; Standard Abbe refractometry
[3] = xn = mol fraction of the nth substance listed; settings: 101 kPa, Liquid

Cc1cc(C)cc(C)c1 [1,3,5-trimethylbenzene]
[1]
Settings	mass density [kg/m3]
298.15 K	861.13
308.15 K	852.89
318.15 K	844.78
328.15 K	836.65

Settings	refractive index
[2]	1.4967

Cc1cc(C)cc(C)c1 [1,3,5-trimethylbenzene] + CCCCCCCC
[3]
Settings	mass density [kg/m3]
298.15 K, x2 = 0	861.13
298.15 K, x2 = 0.08503	845.14
298.15 K, x2 = 0.1479	833.6
298.15 K, x2 = 0.2132	821.88
298.15 K, x2 = 0.2717	811.56
298.15 K, x2 = 0.3177	803.61
298.15 K, x2 = 0.3864	791.95
298.15 K, x2 = 0.463	779.23
298.15 K, x2 = 0.5407	766.69
298.15 K, x2 = 0.6037	756.73
298.15 K, x2 = 0.6725	746.08
298.15 K, x2 = 0.723	738.44
298.15 K, x2 = 0.7969	727.45
298.15 K, x2 = 0.8623	717.95
298.15 K, x2 = 0.9422	706.63
308.15 K, x2 = 0	852.89
308.15 K, x2 = 0.08503	836.88
308.15 K, x2 = 0.1386	827.02
308.15 K, x2 = 0.2132	813.6
308.15 K, x2 = 0.2717	803.29
308.15 K, x2 = 0.3177	795.34
308.15 K, x2 = 0.3864	783.69
308.15 K, x2 = 0.463	770.99
308.15 K, x2 = 0.5407	758.45
308.15 K, x2 = 0.6037	748.49
308.15 K, x2 = 0.6725	737.87
308.15 K, x2 = 0.723	730.2
308.15 K, x2 = 0.7969	719.24
308.15 K, x2 = 0.8623	709.74
308.15 K, x2 = 0.9422	698.43
318.15 K, x2 = 0	844.78
318.15 K, x2 = 0.06984	831.58
318.15 K, x2 = 0.1363	819.34
318.15 K, x2 = 0.2001	807.84
318.15 K, x2 = 0.2695	795.59
318.15 K, x2 = 0.3464	782.35
318.15 K, x2 = 0.398	773.67
318.15 K, x2 = 0.4464	765.65
318.15 K, x2 = 0.536	751.14
318.15 K, x2 = 0.5995	741.12
318.15 K, x2 = 0.6643	731.1
318.15 K, x2 = 0.7301	721.16
318.15 K, x2 = 0.7839	713.18
318.15 K, x2 = 0.8537	703.03
318.15 K, x2 = 0.9507	689.3
328.15 K, x2 = 0	836.65
328.15 K, x2 = 0.06984	823.48
328.15 K, x2 = 0.1363	811.25
328.15 K, x2 = 0.2001	799.75
328.15 K, x2 = 0.2677	787.84
328.15 K, x2 = 0.3464	774.3
328.15 K, x2 = 0.398	765.62
328.15 K, x2 = 0.4622	755.02
328.15 K, x2 = 0.5368	743
328.15 K, x2 = 0.6022	732.7
328.15 K, x2 = 0.6552	724.51
328.15 K, x2 = 0.7389	711.86
328.15 K, x2 = 0.7839	705.21
328.15 K, x2 = 0.8537	695.07
328.15 K, x2 = 0.9507	681.35

Cc1cccc(C)c1 [1,3-dimethylbenzene]
[1]
Settings	mass density [kg/m3]
298.15 K	859.85
308.15 K	851.2
318.15 K	842.66
328.15 K	834.13

Settings	refractive index
[2]	1.4945

Cc1cccc(C)c1 [1,3-dimethylbenzene] + CCCCCCCC
[3]
Settings	mass density [kg/m3]
298.15 K, x2 = 0	859.85
298.15 K, x2 = 0.06642	845.86
298.15 K, x2 = 0.1397	831.1
298.15 K, x2 = 0.2052	818.49
298.15 K, x2 = 0.276	805.42
298.15 K, x2 = 0.323	797.05
298.15 K, x2 = 0.3982	784.13
298.15 K, x2 = 0.4618	773.65
298.15 K, x2 = 0.5432	760.8
298.15 K, x2 = 0.5993	752.28
298.15 K, x2 = 0.6755	741.14
298.15 K, x2 = 0.7284	733.68
298.15 K, x2 = 0.7851	725.91
298.15 K, x2 = 0.8583	716.27
298.15 K, x2 = 0.925	707.79
308.15 K, x2 = 0	851.2
308.15 K, x2 = 0.06642	837.23
308.15 K, x2 = 0.1397	822.5
308.15 K, x2 = 0.2052	809.92
308.15 K, x2 = 0.276	796.89
308.15 K, x2 = 0.323	788.53
308.15 K, x2 = 0.3954	776.12
308.15 K, x2 = 0.4618	765.21
308.15 K, x2 = 0.5432	752.4
308.15 K, x2 = 0.5993	743.9
308.15 K, x2 = 0.6755	732.79
308.15 K, x2 = 0.7284	725.36
308.15 K, x2 = 0.7851	717.64
308.15 K, x2 = 0.8583	708.01
308.15 K, x2 = 0.925	699.57
318.15 K, x2 = 0	842.66
318.15 K, x2 = 0.0687	828.23
318.15 K, x2 = 0.1168	818.54
318.15 K, x2 = 0.207	801.13
318.15 K, x2 = 0.2651	790.45
318.15 K, x2 = 0.3289	779.13
318.15 K, x2 = 0.4087	765.6
318.15 K, x2 = 0.4672	756.08
318.15 K, x2 = 0.5321	745.88
318.15 K, x2 = 0.6067	734.61
318.15 K, x2 = 0.6634	726.39
318.15 K, x2 = 0.7288	717.2
318.15 K, x2 = 0.7923	708.59
318.15 K, x2 = 0.8634	699.33
318.15 K, x2 = 0.9502	688.48
328.15 K, x2 = 0	834.13
328.15 K, x2 = 0.0687	819.75
328.15 K, x2 = 0.1168	810.1
328.15 K, x2 = 0.207	792.73
328.15 K, x2 = 0.2651	782.09
328.15 K, x2 = 0.3289	770.81
328.15 K, x2 = 0.4087	757.32
328.15 K, x2 = 0.4672	747.81
328.15 K, x2 = 0.5287	738.2
328.15 K, x2 = 0.6067	726.45
328.15 K, x2 = 0.6634	718.26
328.15 K, x2 = 0.7288	709.11
328.15 K, x2 = 0.7923	700.55
328.15 K, x2 = 0.8634	691.33
328.15 K, x2 = 0.9502	680.52

c1ccccc1 [benzene]
[1]
Settings	mass density [kg/m3]
298.15 K	873.62
308.15 K	863.01
318.15 K	852.16
328.15 K	841.49

Settings	refractive index
[2]	1.4979

c1ccccc1 [benzene] + CCCCCCCC
[3], x2 = 0
Settings	mass density [kg/m3]
298.15 K	873.62
308.15 K	863.01
318.15 K	852.16
328.15 K	841.49
